Series [1] can be described thus: Pulmonary function tests (DLCO, FEV1, FVC), change from baseline. Format: in vivo, human.
Procedure: Participants were under continuous medical supervision during each admission period (up to 48 h post-dose), and safety assessments were made at regular intervals throughout each period and until the end of follow-up. Assessment of safety was conducted by monitoring AEs, clinical laboratory tests (haematology, clinical chemistry and urinalysis), vital signs (including pulse oximetry), 12-lead ECGs, telemetry, physical examinations and pulmonary function tests (forced expiratory volume in 1 s [FEV1], FVC, diffusing capacity of the lung for carbon monoxide).
The test system of series [2] is αvβ6 integrin. The conditions noted are these: cited from earlier work.
For series [3] the following is noted: IPF patients treated; cited from earlier work.
The test system of series [4] is αvβ6 integrin-mediated TGFβ activation. The note with it: in vitro experiments; cited from earlier work.

Turning to `Cc1cc(C)n(-c2cccc([C@H](CC(=O)O)CN3CC[C@@H](CCc4ccc5c(n4)NCCC5)C3)c2)n1` [GSK3008348], the “DLCO, mean change from baseline to 24 h post dose” value is recorded as -0.153 L in series [1] (1 mcg, N=6); 0.938 L in series [1] (3 mcg, N=6); 0.113 L in series [1] (10 mcg, N=6); -0.168 L in series [1] (30 mcg, N=6); -0.862 L in series [1] (100 mcg, N=6); 0.562 L in series [1] (300 mcg, N=6). Further, the “DLCO, mean change from baseline to 24 h post dose” value in series [1] (1000 mcg, N=12) is recorded as -0.293 L; in series [1] (3000 mcg, N=11), 0.547 L. Besides, the “FEV1, mean change from baseline to 24 h post dose” value is -0.043 L in series [1] (1 mcg, N=6); -0.007 L in series [1] (3 mcg, N=6); -0.053 L in series [1] (10 mcg, N=6); 0.085 L in series [1] (30 mcg, N=6); 0.023 L in series [1] (100 mcg, N=6); -0.072 L in series [1] (300 mcg, N=6). Moreover, the “FEV1, mean change from baseline to 24 h post dose” value in series [1] (1000 mcg, N=12) is -0.027 L; in series [1] (3000 mcg, N=11), -0.025 L. Besides, the “FVC, mean change from baseline to 24 h post dose” value in series [1] (1 mcg, N=6) is on record as -0.06 L; in series [1] (3 mcg, N=6), 0.125 L; in series [1] (10 mcg, N=6), -0.105 L; in series [1] (30 mcg, N=6), 0.033 L; in series [1] (100 mcg, N=6), 0.12 L; in series [1] (300 mcg, N=6) it was -0.078 L. For the same compound, the “FVC, mean change from baseline to 24 h post dose” value is on record as -0.014 L in series [1] (1000 mcg, N=12) and -0.094 L in series [1] (3000 mcg, N=11). In addition, the “Individual change from baseline in FEV1 and FVC over time between treatment groups” value in series [1] (all dose levels) is given as “did not show clinically significant differences”. In series [2], the “Binding affinity for the αvβ6 integrin” value is reported as “high affinity”.
For the compound `COC(=O)c1ccc2c(c1)NC(=O)/C2=C(\Nc1ccc(N(C)C(=O)CN2CCN(C)CC2)cc1)c1ccccc1` [nintedanib], the “Discontinuation due to adverse events (AEs), patients” value in series [3] is given as around 20%. The “Effects on αvβ6 integrin-mediated TGFβ activation” value in series [4] is “limited effects”.
For the compound `Cc1ccc(=O)n(-c2ccccc2)c1` [pirfenidone], in series [3], the “Discontinuation due to adverse events (AEs), patients” value is “approximately 30%”. Also, the “Effects on αvβ6 integrin-mediated TGFβ activation” value in series [4] is reported as “limited effects”.

(Values after paper PMC5942357 (European Journal of Clinical Pharmacology, 2018).)
